According to patent US20140318000A1, “COMBINING ALGAE CULTIVATION AND CO2 CAPTURE” (Nederlandse Organisatie voor …, priority 2011, published 2014):
Entries after “also recorded” stand apart in the source; their conditions may differ.

Experiments:
[1] = CO2 uptake in absorbent liquid in a sealed beaker fed continuously with flue gas, online CO2 analyser; format: physicochemical; conditions: 0.2 M taurine, 4 l liquid, flue gas 7.2% CO2, total period 100 000 s
Experimental: CO2 is fed continuously to a sealed beaker with water and with an absorp absorbent liquid (0.2 M taurine). The height of the liquids is 30 cm the total amount of liquids is 4 l. For water the uptake, that is the amount of CO2, in %, leaving the beaker as function of the time, is given for two flow rates. […] In FIG. 4, the CO2 concentration, in %, leaving the beaker as function of time is depicted. Experiments were conducted in a sealed beaker, where flue gas was fed, and where the gaseous stream leaving the beaker was analysed with an online CO2 analyser. The composition of the ‘flue gas’ was 7.2% CO2 and […].

Spirulina platensis = assay: Growth of Spirulina platensis (dry algae density) in growth medium combined with absorbent liquid loaded with CO2; format: cell-based
Experimental: For the absorbent liquids standard procedures were used to prepare the solvent solutions. For the absorbent liquids stock solutions with a molarity of 2 M were prepared. To test the growth, the molarities of the solutions were adjusted at the start of the experiments by adding a given amount of the aqueous growth medium.
The growth of the algae was tested with different solutions composed from different ratios (volume based) of growth media and absorbent liquid.
Subsequently, a number of dedicated experiments were performed were a specific algae (and growth medium) was combined with a given absorbent liquid in the presence of CO2. The CO2 was added in two different ways.
In the first way, so-called batch operation, the algae, growth medium, and the absorbent liquid (with a given molarity) were prepared in a beaker (of about 1 l) or reactor (available with a volume of 10 l and 20 l) and the CO2 was bubbled through for at least 12 h to saturate the solution with a high flow rate (in the order of 200 ml/min).
During the experiments the pH was measured on a daily basis.
At given times a small sample was taken from the beaker (or reactor) to analyse the micro-algae. The volume of the sample was determined, the sample was then dried in an oven, and subsequently the mass determined (by weighing) to obtain the dry algae density (g/l).
For various tests, Arthrospira (Spirulina) platensis was used. The Spirulina strain is kept in Schlösser's medium (Schlösser, Berichten der Deutchen Botanischen Gesellschaft 1982, 95, 181-276). Schlösser's medium contained per litre: 13.6 g of NaHCO3, 4.03 g of Na2CO3, 0.5 g of K2HPO4, 2.5 g of NaNO3, 1 g of K2SO4, 1 g of NaCl, 0.2 g of MgSO4.7H2O, 0.04 g of CaCl2.2H2O, 0.01 g of FeSO4.7H2O, and 0.08 g of EDTA (ethylenediaminetetraacetic). Some micronutrients are added as well.
The overall composition based on 1 l of total solution was obtained by combining: 400 ml of the growth medium, for example the Schlösser's medium, with 400 ml of an aqueous amino acids salts, with as ‘counter ion’ potassium hydroxide, solution, where the amount of amino acid was varied between 0.1 M and 1 M. Subsequently, 200 ml of algae solution was added.

## NCCS(=O)(=O)O [taurine, 2-aminoethanesulphonic acid]
[1]
  CO2 leaving the beaker: no CO2 was measured; also recorded: almost no CO2 is leaving the beaker
Spirulina platensis; Spirulina platensis, 0.1 M taurine as absorbent liquid
  dry algae density: about 2 g/l
Spirulina platensis; Spirulina platensis, 0.2 M taurine, solution saturated with CO2 at start, before reloading at day 20
  dry algae density, initial constant level: about 1.4 g/l
Spirulina platensis; Spirulina, 0.2 M taurine initially saturated with CO2, after about 15 days
  final dry algae density: 2.1 g/L
Spirulina platensis; Spirulina, 0.2 M taurine initially saturated with CO2, increase from 0.25 g/l in about 5 days after start-up
  dry algae density after growth period: 1.7 g/L
